Patent publication US9789086B1, “N-(5-arylamido-2-methylphenyl)-5-methylisooxazole-4-carboxamide deravative, pharmaceutical acceptable salt thereof, method for preparation therof and FMS kinase inhibitor comprising the same as anactive ingredient” (Industry-University Cooperation Foundation Hanyang …, priority 2014, dated 2017)

Columns and labels:
A375P cell line = A375P cell line proliferation inhibitory activity (MTT assay); format: cell-based; conditions: A375P cells, 48 hours treatment
Experimental: A375P cell lines were purchased from ATCC and cultured in a DMEM culture medium (containing 10% FBS and 1% penicillin/streptomycin) in the presence of 5% CO2 at 37° C. The cultured A375P cell lines were taken from culture substrate with 0.05% trypsin-0.02% EDTA and plated at a density of 5×10^3 cells per well in 96-well plates.
(§1) In order to measure cell viability, MTT [3-(4,5-dimethylthiazole-2-yl)-2,5-diphenyltetrazolium bromide] activity assay method (Thiazolyl Blue Tetrazolium Bromide, Sigma Aldrich) was used. Cell lines were cultured in 96-well plates for 24 hours and treated with the compounds of Examples previously prepared. For the compound treatment, 10 mM stocks were prepared, serially diluted in DMSO and added by 0.5 μL at 8 points (final concentration of 0.5%). The cell lines in plates treated with the compounds was cultured for 48 hours, then 15 μL of dye was added to each well and cultured for 4 hours. Then, 100 μL of DMSO solvent was added to each well, and the formed solid was dissolved to measure the absorbance. The absorbance was read at a wavelength of 570 nm using EnVision 2103, and the GI 50 value was calculated using GraphPad Prism 4.0 software, and the results are shown in Table 1 below.

U937 cell line = U937 cell line proliferation inhibitory activity (MTT assay); format: cell-based; conditions: Homo sapiens, U-937, U937 cells
Experimental: as §1
U937 cell lines were purchased from ATCC and cultured in a RPMI culture medium (containing 10% FBS, 1% penicillin/streptomycin and 25 mM HEPES) in the presence of 5% CO2 at 37° C. The cell line proliferation inhibitory activity for Examples previously prepared was measured using the same MTT activity assay method as the A375P cell line proliferation inhibitory activity assay in Experimental Example 1.

FMS = target: T1, FMS (Homo sapiens, UniProt P07333); test: FMS inhibitory activity (Reaction Biology Kinase profiling, IC50 profiler express); format: biochemical
T1 construct: purchased Reaction Biology Corporation
T1 sequence (P07333 20-972): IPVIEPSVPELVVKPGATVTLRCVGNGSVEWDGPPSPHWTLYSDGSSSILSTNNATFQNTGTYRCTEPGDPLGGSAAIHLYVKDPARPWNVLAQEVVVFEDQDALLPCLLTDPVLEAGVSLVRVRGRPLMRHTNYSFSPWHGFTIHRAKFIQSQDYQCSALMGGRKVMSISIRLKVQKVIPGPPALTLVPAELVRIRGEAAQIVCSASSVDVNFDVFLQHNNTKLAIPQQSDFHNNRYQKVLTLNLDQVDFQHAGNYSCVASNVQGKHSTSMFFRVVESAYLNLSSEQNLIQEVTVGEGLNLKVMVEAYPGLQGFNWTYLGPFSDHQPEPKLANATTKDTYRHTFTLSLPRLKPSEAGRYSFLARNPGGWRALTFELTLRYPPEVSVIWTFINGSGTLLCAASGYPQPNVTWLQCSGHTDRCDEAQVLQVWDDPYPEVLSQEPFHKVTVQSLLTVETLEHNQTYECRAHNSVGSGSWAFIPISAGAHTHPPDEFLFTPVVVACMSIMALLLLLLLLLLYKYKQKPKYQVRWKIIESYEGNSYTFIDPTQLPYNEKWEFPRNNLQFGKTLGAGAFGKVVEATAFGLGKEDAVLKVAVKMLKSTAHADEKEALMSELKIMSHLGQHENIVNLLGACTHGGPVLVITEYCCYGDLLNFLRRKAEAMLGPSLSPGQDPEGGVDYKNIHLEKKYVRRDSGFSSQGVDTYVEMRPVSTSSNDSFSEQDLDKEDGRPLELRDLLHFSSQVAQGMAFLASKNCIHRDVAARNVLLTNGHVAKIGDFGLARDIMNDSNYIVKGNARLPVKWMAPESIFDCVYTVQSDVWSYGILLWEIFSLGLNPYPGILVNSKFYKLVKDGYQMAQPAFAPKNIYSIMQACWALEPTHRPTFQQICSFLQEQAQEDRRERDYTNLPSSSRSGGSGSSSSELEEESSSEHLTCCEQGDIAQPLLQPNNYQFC
Experimental: The inhibitory activity of FMS at a concentration of 10 μM of the compound prepared in Example 5 was measured using Kinase profiling services (IC 50 profiler express) offered by Reaction Biology Corporation.

| GI50 (A375P cell line) | GI50 (U937 cell line) | inhibition at 10 µM (FMS; compound concentration 10 μM, read-out: FMS activity inhibited) | IC50 (FMS; sequentially decreasing concentration, read-out: concentration that inhibits FMS activity by 50% (IC50)) | SMILES |
| --- | --- | --- | --- | --- |
| 10 to 30 µM | 10 to 30 µM |  |  | Cc1ccc(NC(=O)Nc2ccc(Cl)c(C(F)(F)F)c2)cc1NC(=O)c1cnoc1C [Example 30, N-(5-(3-(4-chloro-3-(trifluoromethyl)phenyl)ureido)-2-methylphenyl)-5-methylisoxazole-4-carboxamide] |
| 10 to 30 µM | 10 to 30 µM |  |  | CCCS(=O)(=O)Nc1ccc(C)c(NC(=O)c2cnoc2C)c1 [Example 42, 5-methyl-N-(2-methyl-5-(propylsulfonamido)phenyl)isoxazole-4-carboxamide] |
| 10 to 30 µM | 10 to 30 µM |  |  | Cc1ccc(NC(=O)Nc2cc(Cl)cc(Cl)c2)cc1NC(=O)c1cnoc1C [Example 33, N-(5-(3-(3,5-dichlorophenyl)ureido)-2-methylphenyl)-5-methylisoxazole-4-carboxamide] |
| 10 to 30 µM | 10 to 30 µM |  |  | Cc1ccc(NC(=O)Nc2ccc(Cl)cc2)cc1NC(=O)c1cnoc1C [Example 28, N-(5-(3-(4-chlorophenyl)ureido)-2-methylphenyl)-5-methylisoxazole-4-carboxamide] |

More lines, now with the values behind:

| SMILES | GI50 (A375P cell line) | GI50 (U937 cell line) | inhibition at 10 µM (FMS; compound concentration 10 μM, read-out: FMS activity inhibited) | IC50 (FMS; sequentially decreasing concentration, read-out: concentration that inhibits FMS activity by 50% (IC50)) |
| --- | --- | --- | --- | --- |
| Cc1ccc(NC(=O)c2ccc(Cl)c(C(F)(F)F)c2)cc1NC(=O)c1cnoc1C [Example 5, N-(5-(4-chloro-3-(trifluoromethyl)benzamido)-2-methylphenyl)-5-methylisoxazole-4-carboxamide] | 10 to 30 µM | 10 to 30 µM | 98.7% | 0.00995 µM |
| Cc1ccc(NC(=O)c2cc(-n3cncc3C)cc(C(F)(F)F)c2)cc1NC(=O)c1cnoc1C [Example 10, 5-methyl-N-(2-methyl-5-(3-(5-methyl-1H-imidazol-1-yl)-5-(trifluoromethyl)benzamido)phenyl)isoxazole-4-carboxamide] | 10 to 30 µM | < 1 µM |  |  |
| Cc1ccc(NC(=O)c2ccc(N3CCOCC3)c(C(F)(F)F)c2)cc1NC(=O)c1cnoc1C [Example 4, 5-methyl-N-(2-methyl-5-(4-morpholino-3-(trifluoromethyl)benzamido)phenyl)isoxazole-4-carboxamide] | 10 to 30 µM | < 1 µM |  |  |
| Cc1ccc(NC(=O)Cc2ccccc2F)cc1NC(=O)c1cnoc1C [Example 8, N-(5-(2-(2-fluorophenyl)acetamido)-2-methylphenyl)-5-methylisoxazole-4-carboxamide] | 10 to 30 µM | 10 to 30 µM |  |  |
| Cc1ccc(NC(=O)C2(C)CCc3c(C)c(O)c(C)c(C)c3O2)cc1NC(=O)c1cnoc1C (stereo not drawn) [Example 14, N-(5-(6-hydroxy-2,5,7,8-tetramethylchroman-2-carboxamido)-2-methylphenyl)-5-methylisoxazole-4-carboxamide] | 10 to 30 µM | 10 to 30 µM |  |  |
| Cc1ccc(NC(=O)c2cnc3ccccc3c2)cc1NC(=O)c1cnoc1C [Example 27, 5-methyl-N-(2-methyl-5-(quinoline-3-carboxamido)phenyl)isoxazole-4-carboxamide] | 10 to 30 µM | 10 to 30 µM |  |  |
| Cc1ccc(NC(=O)Cc2c[nH]c3ccccc23)cc1NC(=O)c1cnoc1C [Example 16, N-(5-(2-(1H-indol-3-yl)acetamido)-2-methylphenyl)-5-methylisoxazole-4-carboxamide] | 10 to 30 µM | 10 to 30 µM |  |  |
